In patent US20220362184A1, “GUT-PROTECTIVE COMPOSITIONS COMPRISING BOSWELLIC ACID” (INVENTIA HEALTHCARE LIMITED, priority 2019, published 2022):

What was measured:
[1] = test system: Helicobacter pylori strains; assay: Micro-broth dilution antimicrobial activity (MIC, CLSI); type: cell-based; conditions: growth inhibited >90% compared to growth control
Method: Micro-broth dilution method was used to determine the antimicrobial activity of boswellic acid composition against Helicobacter pylori strains. The anti-bacterial minimum inhibitory concentration (MIC) study was performed as per the Clinical and Laboratory Standards Institute (CLSI) guidelines.
The test compound (composition comprising boswellic acid) was dissolved using Methanol to a concentration of 12.8 mg/mL (stock). Amoxicillin was dissolved in sterile Phosphate buffer to a concentration of 2 mg/mL.

[2] = test system: Dextran Sodium Sulphate (2.5% w/v) induced colitis in BALB/c mice; assay: Dextran Sodium Sulphate induced colitis, gut-protective effect; type: in vivo
Method: The compositions comprising boswellic acids are also evaluated for their gut-protective effect using Dextran Sodium Sulphate (2.5% w/v) induced colitis in BALB/c mice. Body weights of mice were recorded during study period, macroscopic examination was carried out for all terminal sacrificed, moribund and found dead animals. Colon and rectum were collected, and histopathology was performed. The composition comprising boswellic acid was also evaluated for gut-protective effect through antimicrobial activity against Helicobacter pylori strains using Micro-broth dilution method. The anti-bacterial minimum inhibitory concentration (MIC) was checked for the composition against Amoxycillin.
The gut-protective effect of composition comprising boswellic acids was evaluated using Dextran Sodium Sulphate (2.5% w/v) induced colitis in BALB/c mice. Dextran Sodium Sulphate (DSS) (36000 to 50000 Daltons molecular weight) was added in autoclaved drinking water and administered to the animals over 10 days for inducing disease condition. Group 2 served as disease control. Groups 3, 4 and 5 were treated with Test Item 1 (G3), Test Item 2 (G4) and Reference (Sulfasalazine—G5), respectively. Concurrent vehicle control group (G1) was also maintained.
Onset of colitis symptoms was monitored by measuring percent body weight, stool consistency (SC) and fecal occult blood (FOB). During the study period (10 days), Disease Activity Index (DAI) was calculated from scores of percent body weight, SC and FOB and were reported. Treatment was continued along with the DSS administration in drinking water up to 10 days by oral administration of Test and Reference Item as follows: • Group 1—Normal control (no DSS & no treatment) • Group 2—Disease control (only DSS, no treatment) • Group 3—DSS+Boswellic acid composition of Example 2: 41 mg/kg • Group 4—DSS+Boswellic acid composition of Example 4: 41 mg/kg • Group 5—DSS+Sulfasalazine: 30 mg/kg
Body weights were recorded daily throughout the study period. Macroscopic examination was carried out for all the terminal sacrificed, moribund and found dead animals. Colon and rectum were collected, and histopathology was performed.

| MIC [1] | SMILES | percentage of mortality during the study period ([2]; 10 days oral with DSS, compositions 41 mg/kg, sulfasalazine 30 mg/kg) | % body weight change ([2]; Day 10, disease control −20.34%, vehicle control −0.44%) | Mean Disease Activity Index (DAI) ([2]; females, Day 10, disease control 3.9) | Mean Disease Activity Index (DAI) ([2]; males, Day 10, disease control 3.1) |
| --- | --- | --- | --- | --- | --- |
| < 0.25 µg/mL | CC1(C)S[C@@H]2[C@H](NC(=O)[C@H](N)c3ccc(O)cc3)C(=O)N2[C@H]1C(=O)O [Amoxicillin] | – | – | – | – |
| – | O=C(O)c1cc(/N=N/c2ccc(S(=O)(=O)Nc3ccccn3)cc2)ccc1O [Sulfasalazine] | 20% | −17.77% | 3.2 | 3.6 |
